Laboratory results reported in patent US20210278408A1, “METHODS OF TREATMENT OF CANCER WITH SUBSTITUTED PYRROLE AND PYRAZOLE COMPOUNDS AND DIAGNOSIS OF CANCERS SUSCEPTIBLE TO TREATMENT WITH SUBSTITUTED PYRROLE AND PYRAZOLE COMPOUNDS” (Bantam Pharmaceutical, LLC, priority 2018, published 2021).
Like-named read-outs stand apart in the source and are kept apart here.

Tested on: 407 cancer cell lines
Assay: Cell viability of cancer cell lines (IC50), CellTiter-Glo Viability Assay, 96 h
Format: cell-based
Details: for IC50: read-out: Absolute IC50
Protocol: Viability was determined by using the 50% inhibitory concentration (IC50) as determined with the CellTiter-Glo® Viability Assay (Promega).
Experiments were initiated by first thawing and equilibrating the CellTiter-Glo® Buffer to room temperature. The lyophilized CellTiter-Glo® Substrate was also equilibrated to room temperature. The lyophilized substrate was reconstituted with the CellTiter-Glo® buffer to form the CellTiter-Glo® Reagent.
Cells were harvested during the logarithmic growth period, counted, and the cell concentration adjusted to 4.44×10^4 cells/mL using culture medium.
Cells were allowed to grow overnight and the following day, the TO reading was obtained by adding 10 μL culture medium to each well of Plate A. The plate was allowed to equilibrate at room temperature for thirty minutes, after which 50 μL CellTiter-Glo® reagent was added to each well. The contents were mixed for 5 min on an orbital shaker to induce cell lysis. Plates were incubated for 20 minutes to stabilize the luminescent signal and the TO luminescence recorded.
Test plate B was incubated for 96 h in the humidified incubator at 37° C. with 5% CO2.
Following the incubation, the plate was equilibrated at room temperature for thirty minutes. CellTiter-Glo® (50 μL) was added to each well of the plate and contents mixed for five minutes on an orbital shaker to induce cell lysis. The luminescent signal was allowed to stabilize at room temperature for 20 minutes and the luminescence recorded.
IC50 (EC50) was calculated using a dose-response curve, fitted using a nonlinear regression model with a sigmoidal dose response. Survival rate was calculated using the formula:
The Surviving rate (%)=(LumTest article−LumMedium control)/(LumNon-treated−LumMedium control)×100%.
Absolute IC50 (EC50) was calculated according to the dose-response curve generated by the statistical software (GraphPad Prism 5.0).

Compound: N.N.[Cl][Pt][Cl] [Cisplatin, reference compound]
- IC50 (HCT-15): 3260 nM
- IC50 (HCT-116): 4030 nM
- % inhibition at top conc. (HEC-1-A cells, 96 h): 83.97%
- IC50 (HEC-1-A cells, 96 h): 13300 nM
- IC50 (HEC-1-B cells, 96 h): 10600 nM
- IC50 (HEL 92.1.7): 480 nM
- IC50 (HGC-27 cells, 96 h): 770 nM
- IC50 (HL-60): 1150 nM
- IC50 (HLE cells, 96 h): 2480 nM
- IC50 (HM-7, 96 h): 6260 nM
- IC50 (HPAC): 14300 nM
- IC50 (HT-3 cells, 96 h): 4850 nM
- IC50 (HT-29): 2890 nM
- IC50 (HT-55): 17700 nM
- IC50 (HT-1080, 96 h): 3530 nM
- IC50 (HT-1376): 3280 nM
- IC50 (HeLa 229 cells, 96 h): 7250 nM
- IC50 (HeLa cells, 96 h): 280 nM
- IC50 (Hep3B): 3080 nM
- IC50 (Hep G2/C3A, 96 h): 1840 nM
- IC50 (Hep G2): 4510 nM
- IC50 (HuCCT1, 96 h): 10000 nM
- IC50 (HuT 78): 500 nM
- IC50 (IHH-4 cells, 96 h): 2650 nM
- IC50 (IM95m cells, 96 h): 8430 nM
- IC50 (IMR-32 cells, 96 h): 60 nM
- IC50 (Ishikawa, 96 h): 2750 nM
- IC50 (J82 cells, 96 h): 310 nM
- IC50 (JAR): 610 nM
- IC50 (JEG-3 cells, 96 h): 520 nM
- IC50 (JHH-1 cells, 96 h): 6040 nM
- IC50 (JHH-4 cells, 96 h): 1070 nM
- IC50 (JHH-5 cells, 96 h): 850 nM
- IC50 (JHH-7 cells, 96 h): 1830 nM
- IC50 (JIMT-1 cells, 96 h): 6960 nM
- IC50 (JJN-3 cells, 96 h): 4080 nM
- IC50 (JVM-2): 1460 nM
- IC50 (JVM-3): 1120 nM
- IC50 (JVM-13): 540 nM
- IC50 (JeKo-1 cells, 96 h): 1360 nM
- IC50 (Jurkat clone E6-1): 470 nM
- IC50 (K-562): 5730 nM
- IC50 (KARPAS-299 cells, 96 h): 890 nM
- IC50 (KARPAS-422): 1110 nM
- % inhibition at top conc. (KATO III, 96 h): 67.05%
- IC50 (KATO III, 96 h): 10500 nM
- IC50 (KG-1): 2020 nM
- IC50 (KHOS/NP cells, 96 h): 1330 nM
- IC50 (KMH-2 cells, 96 h): 2650 nM
- IC50 (KMS-11): 2160 nM
- IC50 (KP4 cells, 96 h): 6250 nM
- IC50 (KPL-4): 1370 nM
- IC50 (KYSE-70): 6110 nM
- IC50 (KYSE-150): 1790 nM
- IC50 (KYSE-270): 2150 nM
- IC50 (KYSE-410 cells, 96 h): 13400 nM
- IC50 (Kasumi-1): 2920 nM
- IC50 (L-82): 1160 nM
- IC50 (L-363): 1830 nM
- IC50 (LN-18 cells, 96 h): 700 nM
- IC50 (LN-229 cells, 96 h): 7680 nM
- IC50 (LNCaP clone FGC, 96 h): 3430 nM
- IC50 (LP-1): 7620 nM
- IC50 (LS123 cells, 96 h): 12000 nM
- IC50 (LS 180): 6270 nM
- IC50 (LS411N): 15100 nM
- IC50 (LS513 cells, 96 h): 2810 nM
- IC50 (LS1034 cells, 96 h): 6520 nM
- IC50 (Li-7): 630 nM
- IC50 (LoVo): 8270 nM
- IC50 (M059K cells, 96 h): 2660 nM
- IC50 (MC/CAR cells, 96 h): 3150 nM
- IC50 (MCF7): 11800 nM
- IC50 (MDA-MB-231): 23000 nM
- IC50 (MDA-MB-415): 37900 nM
- IC50 (MDA-MB-436, 96 h): 500 nM
- IC50 (MDA-MB-453): 4860 nM
- IC50 (MDA-MB-468 cells, 96 h): 270 nM
- IC50 (ME-180 cells, 96 h): 840 nM
- IC50 (MEG-01): 1900 nM
- IC50 (MES-SA cells, 96 h): 660 nM
- IC50 (MES-SA/DX5 cells, 96 h): 2770 nM
- IC50 (MFE-296 cells, 96 h): 3310 nM
- % inhibition at top conc. (MHCC97-H): 83.30%
- IC50 (MHCC97-H): 7890 nM
- IC50 (MIA PaCa-2): 2740 nM
- IC50 (MKN1 cells, 96 h): 1460 nM
- IC50 (MKN45, 96 h): 5470 nM
- % inhibition at top conc. (MKN74 cells, 96 h): 84.20%
- IC50 (MKN74 cells, 96 h): 11200 nM
- IC50 (ML-2): 1210 nM
- IC50 (MM.1R): 810 nM
- IC50 (MM.1S): 1020 nM
- IC50 (MOLM-13 cells, 96 h): 780 nM
- IC50 (MOLM-16 cells, 96 h): 870 nM
- IC50 (MOLP8 cells, 96 h): 1750 nM
- IC50 (MS751 cells, 96 h): 4610 nM
